Assay results published in US11312690B2, “Compounds, compositions, methods for treating diseases, and methods for preparing compounds” (UNIVERSITY OF LOUISVILLE RESEARCH FOUNDATION, INC., priority 2015, dated 2022).

How the values were obtained:
[1] = target: T1, interaction of K-Ras with RGL2 (Homo sapiens, UniProt O15211); assay: Ras/RalGEF binding, immunoprecipitation and immunoblot from co-transfected HEK-293 cells; details: 10 μM, HA K-Ras 12v and GFP-RGL2, IP/IB, FIG. 3B
T1 construct: expressed in transfected cells; host or cells: HEK-293
T1 sequence (O15211 1-777): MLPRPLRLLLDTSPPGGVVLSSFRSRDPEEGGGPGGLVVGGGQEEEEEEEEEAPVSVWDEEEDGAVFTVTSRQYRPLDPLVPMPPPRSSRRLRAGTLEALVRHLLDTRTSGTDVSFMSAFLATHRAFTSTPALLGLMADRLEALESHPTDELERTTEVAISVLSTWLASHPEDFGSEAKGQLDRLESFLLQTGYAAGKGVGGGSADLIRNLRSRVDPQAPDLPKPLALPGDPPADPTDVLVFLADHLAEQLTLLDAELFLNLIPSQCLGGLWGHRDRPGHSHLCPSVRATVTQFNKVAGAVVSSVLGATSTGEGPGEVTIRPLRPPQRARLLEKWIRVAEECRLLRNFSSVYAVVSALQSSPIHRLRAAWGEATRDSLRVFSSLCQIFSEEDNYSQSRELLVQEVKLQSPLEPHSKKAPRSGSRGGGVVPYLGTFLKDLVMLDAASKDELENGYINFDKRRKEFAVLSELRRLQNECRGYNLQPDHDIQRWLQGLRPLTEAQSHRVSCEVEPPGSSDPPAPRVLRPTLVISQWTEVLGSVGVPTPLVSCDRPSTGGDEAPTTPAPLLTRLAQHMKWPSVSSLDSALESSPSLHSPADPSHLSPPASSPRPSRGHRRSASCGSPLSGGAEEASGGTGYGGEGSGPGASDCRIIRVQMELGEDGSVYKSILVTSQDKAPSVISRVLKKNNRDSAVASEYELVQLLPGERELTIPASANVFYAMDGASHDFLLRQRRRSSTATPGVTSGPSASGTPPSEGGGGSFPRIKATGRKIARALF

[2] = test system: MiaPaCa-2; assay: Soft agar colony formation; type: cell-based, human; set-up: Colonies in agar: unit not given here; details: 10 μM
Description: FIG. 1. Effects of some compounds of Formula (I) on RalGEF inhibitor on soft agar growth and normal growth in 2D of pancreatic carcinoma cell lines. In FIGS. 1A and 1B, Panc-1 (ATCC® CRL-1469™) and MiaPaCa-2 (ATCC® CRL-1420™) mutant Ras containing pancreatic tumor cell lines were plated in soft agar in the presence of 10 μM or 0.9 μM of compound I-1 and scored for the formation of colonies. In FIGS. 1C and 1D, compound I-1 was then tested for the ability to inhibit cell growth on the same cell lines under normal 2D growth conditions on plastic. “0” is the carrier. Cells were seeded at the same density and scored after two weeks in culture.
Human pancreatic tumor cell lines MiaPaca-2 and Panc-1 contain activated K-Ras and were used in the initial screen to identify compound I-1. Soft agar colony formation remains an established in vitro assay to predict tumorigenicity and was used to predict tumorigenicity for compound I-1.
Several other compounds were tested against the Mia Paca-2 cell line using the soft agar colony formation in vitro assay in two experiments. For each table, DMSO was used as a control and, as such, within each table, the DMSO colonies are the measure against which each measurement in the corresponding table is compared.

[3] = Table 3 experiment, DMSO control 1686 ± 114 colonies
[4] = Table 2 experiment, DMSO control 182 ± 7 colonies

SMILES	Colonies in agar [2, 3]	Colonies in agar [2, 4]	further results
COc1cccc(CNc2nc(CN(C)Cc3cccc(OC)c3)nc3ccccc23)c1 [Compound I-2, N-(3-Methoxybenzyl)-2-(((3-methoxybenzyl)(methyl)amino)methyl)quinazolin-4-amine]	–	–	inhibition of RGL2 (Ras/RGL2 interaction) [1]: found to inhibit RGL2
COc1cccc(CN(C)Cc2nc(NCc3ccccc3OC)c3c(C)c(C)sc3n2)c1 [Compound I-43]	272 ± 40	–	–
COc1cccc(CN(C)Cc2nc(NCc3cccc(Cl)c3)c3c(C)c(C)sc3n2)c1 [Compound I-27]	–	51 ± 9	–
COc1cccc(CNc2nc(CN(C)Cc3cccc(OC)c3)nc3sccc23)c1 [Compound I-32]	–	36 ± 1	–
COc1cccc(CN(C)Cc2nc(NC(C)c3ccccc3)c3c(C)c(C)sc3n2)c1 (stereo not shown) [Compound I-26]	–	0 ± 0	–
COc1cccc(CN(C)Cc2nc(NCc3cccc(F)c3)c3c(C)c(C)sc3n2)c1 [Compound I-28]	–	54 ± 5	–
COc1cccc(CNc2nc(CN(C)Cc3cccc(OC)c3)nc3scc(C)c23)c1 [Compound I-30]	–	14 ± 2	–
COc1cccc(CNc2nc(CN(C)Cc3cccc(OC)c3)nc3sc4c(c23)CCC4)c1 [Compound I-45]	361 ± 49	–	–
COc1cccc(CNc2nc(CN(C)Cc3cccc(C)c3)nc3sc(C)c(C)c23)c1 [Compound I-29]	–	0 ± 0	–
COc1cccc(CNc2nc(CN(C)Cc3cccc(OC)c3)nc3c2c(C)c(C)[s+]3[O-])c1 (stereo not shown) [Compound I-33]	–	186 ± 4	–
CCc1cc2c(NCc3cccc(OC)c3)nc(CN(C)Cc3cccc(OC)c3)nc2s1 [Compound I-31]	–	14 ± 1	–
COc1cccc(CN(C)Cc2nc(NCc3ccccc3)c3c(C)c(C)sc3n2)c1 [Compound I-46]	320 ± 22	–	–
COc1cccc(CNc2nc(CN(C)Cc3ccccc3)nc3sc(C)c(C)c23)c1 [Compound I-54]	410 ± 31	–	–
